Where “and” joins values, the source holds several entries; their conditions need not be identical. Equal values may be shown once. Non-standard residues stand in square brackets, D forms with d. Residues, ends and D or L forms follow the SMILES beside them.
Assays:
[1] = tested on: Salmonella strains, Chinese Hamster Ovary cells, erythrocyte micronucleus test; experiment: Mutagenicity tests
[2] = tested on: malnourished subjects with CKD; experiment: Phase II CKD: 24-hour urine collection, creatinine and urea clearance, GFR, PNA; type: in vivo, human; settings: for Creatinine (24-hour urine): mean (SD) / Creatinine clearance: median / GFR: median / Urea (24-hour urine): mean (SD) / Urea clearance: mean (SD) / nPNA: mean (SD): ITT population
Description: Subjects collected 24-hour urine samples at screening, baseline (Days 0 to 1) and Days 28 to 29. All of the samples were analysed for creatinine and urea clearance (mL/min). The samples collected at baseline and on Day 28 were also analysed for proteinuria (Coumassie method), PNA, sodium, potassium, chloride, calcium and phosphate. GFR was calculated using the Cockcroft-Gault formula: […]

[3] = tested on: malnourished subjects with CKD; experiment: Phase II CKD: bioimpedance; type: in vivo, human; settings: for Basal metabolic rate: median / Body cell mass: median / Extracellular cell mass: median / Extracellular water: median / Intracellular water: median / Total body water: median / Fat free mass (%): median / Fat free mass (kg): median / Fat mass (%): median / Fat mass (kg): median: ITT; for Fat free mass (%): median / Fat free mass (kg): median / Fat mass (%): median / Fat mass (kg): median: bioimpedance
Description: Height (cm) was measured only at the screening visit. Anthrompometry was measured at every visit from baseline to follow-up. Anthropometric measurements included weight, skinfold thicknesses and arm circumference. Weight (kg) was measured using a high performance scale. Subjects were asked to stand on the scale with minimal clothing, no shoes, and with even weight on both feet. Skinfold thickness (mm) was measured by using Harpenden Skinfold Callipers at 4 sites: biceps, triceps, suprailiacal and subscapular. Arm circumference (cm) was measured using a tape measure that is flexible, inelastic and metric. The site measured was marked, and the tape was not to be too tight or too loose, and to lie flat on the skin, and be horizontal. Bioimpedance measurements were made to measure body composition at every visit from baseline to Day 28. The bioimpedance scale (RJL Systems) was used. Resistance, reactance and the phase angle were recorded.
Bioelectrical impedance (BIA) was used to evaluate body water content (total body water %, extracellular water and intracellular water), fat free mass and fat mass using Maltron BioScan 916 and BIA 450 apparatus from Biodynamics Corp. The method is fast, precise and noninvasive.
Bioimpedance measurements were done at every visit from baseline (day 0) on days 7, 14, 21 to 28. Weight and FFM (kg) were measured and FM (kg, %) and FFM (%) were derived. There was an increase from baseline in median FFM (3.3 kg) and decrease in median FM (1.8 kg) in all except one (11/12) patients in the GHRH(1-29)NH2 synthetic analog group on day 28 while there was a decrease in median FFM (0.8 kg) and increase in median FM (1.3 kg) in the placebo arm.

human GHRH receptor = biological target: T1, human GHRH receptor (Homo sapiens, UniProt Q02643); experiment: 125I-GHRH competitive binding assay in BHK cell membrane preparations; settings: in comparison with hGHRH(1-29)NH2, ratio IC50 hGHRH(1-29)-NH2/IC50 analog
T1 construct: expressed in transfected cells; host or cells: BHK (baby hamster kidney) 570 cells, membrane preparations
T1 sequence (Q02643 23-423): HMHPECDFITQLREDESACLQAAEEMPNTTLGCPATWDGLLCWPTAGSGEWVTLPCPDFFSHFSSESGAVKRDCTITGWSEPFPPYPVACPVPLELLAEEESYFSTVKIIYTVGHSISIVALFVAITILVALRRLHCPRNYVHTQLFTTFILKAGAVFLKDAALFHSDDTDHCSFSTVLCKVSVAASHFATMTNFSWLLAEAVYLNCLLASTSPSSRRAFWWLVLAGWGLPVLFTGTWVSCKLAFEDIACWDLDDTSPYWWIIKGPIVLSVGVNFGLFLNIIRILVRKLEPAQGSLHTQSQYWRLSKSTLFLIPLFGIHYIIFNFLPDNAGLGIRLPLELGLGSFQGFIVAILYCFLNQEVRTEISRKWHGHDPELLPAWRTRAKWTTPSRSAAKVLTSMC
Description: Non specific binding was determined in presence of 1 μM hGHRH(1-29)NH2. Incubation was carried out at equilibrium (23° C., 60 min) and stopped by centrifugation (12,000 g, 5 min, at 4° C.). The radioactivity content in pellets was determined by gamma counting. The affinity of hGHRH(1-29) NH2 was tested in each experiment to assess the validity of the assay and determine the relative affinity of the analogs.
Values represent the mean±SEM of 3 experiments performed in triplicate for the analogs and the mean±SEM of 2 experiments performed in triplicate for hGHRH(1-44) NH2.
For the binding assay results presented in Tables 8 to 11, values represent the mean±SEM of 8 independent experiments performed in triplicate for the analogs and the mean±SEM of 4 experiments performed in triplicate for hGHRH(1-29)NH2. […] The relative affinity was obtained by taking the ratio IC50 of hGHRH (1-29)-NH2/IC50 analog.

[4] = GHRH vs placebo, Day 28, ANOVA for repeated measures

## CC[C@H](C)[C@H](NC(=O)[C@H](C)NC(=O)[C@H](CC(=O)O)NC(=O)[C@@H](C)NC(=O)[C@@H](N)Cc1ccc(O)cc1)C(=O)N[C@@H](Cc1ccccc1)C(=O)N[C@H](C(=O)N[C@@H](CC(N)=O)C(=O)N[C@@H](CO)C(=O)N[C@H](Cc1ccc(O)cc1)C(=O)N[C@@H](CCCNC(=N)N)C(=O)N[C@@H](CCCCN)C(=O)N[C@H](C(=O)N[C@@H](CC(C)C)C(=O)N[C@H](C)C(=O)N[C@@H](CCC(N)=O)C(=O)N[C@@H](CC(C)C)C(=O)N[C@@H](CO)C(=O)N[C@@H](C)C(=O)N[C@@H](CCCNC(=N)N)C(=O)N[C@@H](CCCCN)C(=O)N[C@@H](CCCCN)C(=O)N[C@@H](CC(C)C)C(=O)N[C@@H](CCC(N)=O)C(=O)N[C@@H](CC(=O)O)C(=O)N[C@H](C(=O)N[C@@H](CCSC)C(=O)N[C@@H](CO)C(=O)N[C@@H](CCCNC(=N)N)C(N)=O)[C@@H](C)CC)C(C)C)[C@@H](C)O [GHRH analog #5, [D-Ala^2, D-Tyr^10, D-Ala^15, Lys^22] hGHRH(1-29)-NH2] (H-Y[dA]DAIFTNS[dY]RKVL[dA]QLSARKKLQDIMSR-NH2)
[1]
  Clastogenicity: not a clastogenic agent
[1]; Salmonella strains, CHO cells, erythrocyte micronucleus test
  Mutagenicity: no evidence of mutagenicity
[2]; Baseline
  Creatinine (24-hour urine): mean (SD): 10.44 (5.10) mmol/24 hours
  Creatinine clearance: median: 24.92 mL/min/1.73 m^−2
  GFR: median: 19.37 ml/min/1.73 m^−2
  Urea (24-hour urine): mean (SD): 343.53 (170.39) mmol/24 hours
  Urea clearance: mean (SD): 11.858 (5.820) mL/min/1.73 m^−2
  nPNA: mean (SD): 2.3648 (1.1530) g/kg body weight/24 h
[2]; Day 28
  Mean urea clearance rate: 11.24 mL/min/1.73 m^−2
  Median GFR: 18.23 mL/min/1.73 m^−2
  Median creatinine clearance: 23.78 mL/min/1.73 m^−2
  Creatinine (24-hour urine): mean (SD): 9.68 (3.29) mmol/24 hours
  Creatinine clearance: median: 23.78 mL/min/1.73 m^−2
  GFR: median: 18.23 ml/min/1.73 m^−2
  Urea (24-hour urine): mean (SD): 235.87 (88.51) mmol/24 hours
  Urea clearance: mean (SD): 11.244 (4.200) mL/min/1.73 m^−2
  nPNA: mean (SD): 1.6198 (0.5892) g/kg body weight/24 h
[2]; [4]
  Urea clearance: adjusted difference or comparison: 2.28 mL/min/1.73 m^−2
  nPNA: adjusted difference or comparison: −0.553 g/kg body weight/24 h
[2]; after decrease (day 28)
  nPNA: mean value: 1.6198 g/kg body weight/24 h
[2]; baseline
  Mean urea clearance rate: 11.86 mL/min/1.73 m^−2
  Median GFR: 19.37 mL/min/1.73 m^−2
  Median creatinine clearance: 24.92 mL/min/1.73 m^−2
[2]; before decrease (baseline)
  nPNA: mean value: 2.3648 g/kg body weight/24 h
[2]; day 28
  Urea clearance: adjusted mean difference between GHRH and placebo arm: 2.28 ml/min/1.73 m^2
  nPNA: adjusted mean difference between GHRH and placebo arm: −0.553 g/kg body weight/24 h
[2]; one patient
  GFR: improvement against baseline, one patient: 78.56%
[2]; two patients
  Creatinine clearance: improvement against baseline, individual patients: 124.63% and 115.65%
[2]; two patients, listed as GHRH(1-29)NH2 synthetic analog
  Urea clearance: improvement against baseline, individual patients: 123.99% and 103.49%
[3]; BIA, day 7
  Median FFM: 50.4 kg
  Median FM: 13.3 kg
[3]; BIA, day 14
  Median FFM: 50.8 kg
  Median FM: 13.4 kg
[3]; BIA, day 21
  Median FFM: 50.1 kg
  Median FM: 12.6 kg
[3]; BIA, day 28
  Decrease from baseline in median FM: 1.8 kg
  Increase from baseline in median FFM: 3.3 kg
  Increase in median BMR from baseline: 49 kcal
[3]; Baseline
  Basal metabolic rate: median: 1441 kcal
  Body cell mass: median: 23 kg and 23.0 kg
  Extracellular cell mass: median: 23.5 kg
  Extracellular water: median: 17.7 L
  Intracellular water: median: 17.0 L
  Total body water: median: 35.8 L
  Fat free mass (%): median: 75.3%
  Fat free mass (kg): median: 48.8 kg
  Fat mass (%): median: 24.7%
  Fat mass (kg): median: 16.0 kg
[3]; Day 28
  Basal metabolic rate: median: 1473 kcal
  Body cell mass: median: 22.6 kg
  Extracellular cell mass: median: 24.7 kg
  Extracellular water: median: 19.1 L
  Intracellular water: median: 15.8 L
  Total body water: median: 38.1 L
  Fat free mass (%): median: 78.6%
  Fat free mass (kg): median: 51.1 kg
  Fat mass (%): median: 21.4%
  Fat mass (kg): median: 12.2 kg
[3]; baseline
  Ratio of median ECW/ICW: 1.04
[3]; Baseline, listed as GHRH(1-29)NH2 synthetic analog
  Fat mass (kg): median: 16 kg
[3]; day 7
  Median BCM: 25.1 kg
  Median ECM: 24.4 kg
  Median increase in BCM from baseline: 1.3 kg
  Median increase in ECM from baseline: 0.8 kg
[3]; day 14
  Median BCM: 24.3 kg
  Median ECM: 25.4 kg
[3]; day 21
  Median BCM: 23.2 kg
  Median ECM: 25.9 kg
[3]; day 28
  Increase in median ECW from baseline: 1.9 L
  Increase in median ICW from baseline: 1.2 L
  Increase in median total body water from baseline: 3 L
  Median increase in BCM from baseline: 1.8 kg
  Median increase in ECM from baseline: 1.7 kg
  Ratio of median ECW/ICW: 1.2
Human GHRH receptor; listed as 5
  Relative binding affinity (R1) in hGHRH-R BHK-expressing cells: 939 ± 249
Human GHRH receptor; listed as GHRH analog # 5
  Relative binding affinity (R1) in hGHRH-R BHK-expressing cells: 939 ± 249
Human GHRH receptor; listed as GHRH(1-29)NH2 synthetic analog
  Relative binding affinity (R1) in hGHRH-R BHK-expressing cells: 939

Reference: patent US20090088380A1, “GHRH ANALOGS AND THERAPEUTIC USES THEREOF” (priority 2007, published 2009)
